Results from the NIST ThermoML archive (doi:10.1021/je700344f).

Tests used:
[1] = 101.33 kPa, Liquid
[2] = xn = mol fraction of the nth substance listed; conditions: 101 kPa, Liquid

CN(C)c1ccccc1 [N,N-dimethylaniline]
[1]
Conditions	mass density [kg/m3]	viscosity [mPa·s]
283.15 K	969.97	1.696
293.15 K	963.01	1.439
303.15 K	956.21	1.17
313.15 K	948.34	0.981
323.15 K	940.24	0.928
333.15 K	932.71	0.911
343.15 K	924.08	0.841

CCCCCCO [hexan-1-ol] + C1COCCO1
[2]
Conditions	mass density [kg/m3]	viscosity [mPa·s]
283.15 K, x2 = 0.1835	860.24	4.488
283.15 K, x2 = 0.2675	873.31	3.52
283.15 K, x2 = 0.385	896.72	2.785
283.15 K, x2 = 0.4933	916.23	2.324
283.15 K, x2 = 0.5935	938.47	2.007
283.15 K, x2 = 0.6866	957.86	1.815
283.15 K, x2 = 0.7731	981.11	1.691
283.15 K, x2 = 0.8795	1013.54	1.601
293.15 K, x2 = 0.1835	853.33	3.221
293.15 K, x2 = 0.2675	865.64	2.707
293.15 K, x2 = 0.385	889.2	2.184
293.15 K, x2 = 0.4933	903.63	1.845
293.15 K, x2 = 0.5935	929.82	1.626
293.15 K, x2 = 0.6866	951.11	1.554
293.15 K, x2 = 0.7731	973.8	1.395
293.15 K, x2 = 0.8795	1002.74	1.311
303.15 K, x2 = 0.1835	845.02	2.632
303.15 K, x2 = 0.2675	857.53	2.121
303.15 K, x2 = 0.385	879.87	1.748
303.15 K, x2 = 0.4933	898.36	1.506
303.15 K, x2 = 0.5935	920.31	1.339
303.15 K, x2 = 0.6866	941.43	1.238
303.15 K, x2 = 0.7731	963.84	1.173
303.15 K, x2 = 0.8795	990.21	–
313.15 K, x2 = 0.1835	836.88	2.285
313.15 K, x2 = 0.2675	849.44	1.705
313.15 K, x2 = 0.385	871.16	1.431
313.15 K, x2 = 0.4933	889.72	1.254
313.15 K, x2 = 0.5935	909.94	1.127
313.15 K, x2 = 0.6866	931.85	1.053
313.15 K, x2 = 0.7731	953.63	1.002
313.15 K, x2 = 0.8795	980.82	0.965
323.15 K, x2 = 0.1835	829.74	1.699
323.15 K, x2 = 0.2675	841.13	1.403
323.15 K, x2 = 0.385	864.56	1.196
323.15 K, x2 = 0.4933	880.42	1.056
323.15 K, x2 = 0.5935	900.9	0.964
323.15 K, x2 = 0.6866	921.84	0.907
323.15 K, x2 = 0.7731	943.38	0.869
323.15 K, x2 = 0.8795	971.57	0.843
333.15 K, x2 = 0.1835	821.17	1.289
333.15 K, x2 = 0.2675	833.54	1.16
333.15 K, x2 = 0.385	856.26	1.012
333.15 K, x2 = 0.4933	869.91	0.903
333.15 K, x2 = 0.5935	890.93	0.839
333.15 K, x2 = 0.6866	911.92	0.792
333.15 K, x2 = 0.7731	933.31	0.763
333.15 K, x2 = 0.8795	958.09	0.742
343.15 K, x2 = 0.1835	815.14	1.074
343.15 K, x2 = 0.2675	824.52	0.975
343.15 K, x2 = 0.385	843.77	0.863
343.15 K, x2 = 0.4933	862.93	0.786
343.15 K, x2 = 0.5935	881.04	0.732
343.15 K, x2 = 0.6866	905.05	0.748
343.15 K, x2 = 0.7731	923.91	0.678
343.15 K, x2 = 0.8795	947.05	0.662
